Data published in patent US20130060022A1, “Compounds useful for treating neurodegenerative disorders” (priority 2011, published 2013).
Where two headings read alike, the source gives them in different places.

Experiments:
Format in all cases: cell-based
Settings in all cases: Homo sapiens, 5 hours at 37° C., 1% DMSO
[1] = test system: Aβ-38; test: Aβ-38 level in conditioned media of 2B7 cells (MSD 3-PLEX ELISA)
Procedure: (§1) Assays were conducted to determine the ability of a Compound of Formula I to modulate […], and Aβ-38.
(§2) Human (6E10) Ab 3-PLEX ELISA kits were purchased from Meso Scale Discovery Labs, 9328 Gaither Road, Gaithersburg, Md. 20877 (Catalog Number K15148E-3). Plates with capture antibodies were blocked for 1-2 hours at room temperature with 150 μL of the manufactures blocking reagent.
(§3) Cultured 2B7 cells in 96 well plate with 250 μL of media per well until confluent;
(§4) Prepared serial dilutions of compounds in DMSO at 100× the final desired concentration;
(§5) Washed wells with 2B7 cells 1× with 250 μL of media;
(§6) Diluted DMSO stocks 1:100 into media:
(§7) Added 250 μL of media containing compounds (1% DMSO) to wells with 2B7 cells for 5 hours at 37° C.
(§8) Diluted conditioned media: 1 part media with 1% DMSO and 1 part blocking buffer;
(§9) 150 μL of the 250 μL of conditioned media were used.
(§10) Seven point standard curve samples were prepared that contained Aβ-42, Aβ-40, and Aβ-38. The highest concentration of Aβ-42 and Aβ-38 was […] and the highest concentration of Aβ-40 was 10,000 pg/mL. Subsequent serial dilutions were 1:3 and the final composition of each sample was 1 part blocking buffer and 1 part cell medium containing 1% DMSO.
(§11) Blocked plates are washed 5× with MSD wash buffer with a plate washer;
(§12) 25 μL of detection antibody and blocker G reagent in MSD blocking solution was added;
(§13) 25 μL of samples (1 part conditioned media containing 1% DMSO and 1 part MSD blocking buffer) were then added;
(§14) Plates were incubated overnight at 4 degrees C. or 2 hours at room temperature.
(§15) Washed wells 5× with MSD wash buffer;
(§16) Added 150 μL 2×MSD read buffer;
(§17) Aβ peptide levels for each peptide were calculated from the standard curve using the MSD software provided with the MSD 2400 Imager. Percent vehicle values for each compound dosage were then calculated and fit to a 4 parameter curve generating IC50 values.

[2] = test system: Aβ-40; test: Aβ-40 level in conditioned media of 2B7 cells (MSD 3-PLEX ELISA)
Procedure: as §1, §2, §3, §4, §5, §6, §7, §8, §9, §10, §11, §12, §13, §14, §15, §16, §17

[3] = test system: Aβ-42; test: Aβ-42 level in conditioned media of 2B7 cells (MSD 3-PLEX ELISA)
Procedure: as §1, §2, §3, §4, §5, §6, §7, §8, §9, §10, §11, §12, §13, §14, §15, §16, §17

[4] = inflection of dose-response curve, read-out: Aβ 38 DR IC50 Inflection
[5] = inflection of dose-response curve, read-out: Aβ 40 DR IC50 Inflection
[6] = inflection of dose-response curve, read-out: Aβ 42 DR IC50 Inflection

SMILES	IC50 ([1]; read-out: Aβ 38 IC50) [nM]	IC50 ([2]; read-out: Aβ 40 IC50) [nM]	IC50 ([3]; read-out: Aβ 42 IC50) [nM]	IC50 [1, 4] [nM]	IC50 [2, 5] [nM]	IC50 [3, 6] [nM]
COCCN1CCN(C(=O)O[C@H]2CC[C@]34C[C@]35CC[C@]3(C)[C@@H]6[C@H](O[C@@H]([C@H](OC(=O)N7CCC7)C(C)C)C[C@H]6C)[C@H](O)[C@@]3(C)[C@@H]5CC[C@H]4C2(C)C)CC1 [Compound I-12]	1000 to 5000	> 5000	501 to 1000			
CC(C)[C@@H](OC(=O)N1CCC1)[C@H]1C[C@@H](C)[C@H]2[C@H](O1)[C@H](O)[C@@]1(C)[C@@H]3CC[C@H]4C(C)(C)[C@@H](OC(=O)N5CC[C@@H](C(=O)O)C5)CC[C@@]45C[C@@]35CC[C@]21C [Compound I-10]	1000 to 5000	> 5000	1000 to 5000			
CC(C)[C@@H](OC(=O)N1CCC1)[C@H]1C[C@@H](C)[C@H]2[C@H](O1)[C@H](O)[C@@]1(C)[C@@H]3CC[C@H]4C(C)(C)[C@@H](OC(=O)N[C@@H](C)C(=O)O)CC[C@@]45C[C@@]35CC[C@]21C [Compound I-4]	1000 to 5000	> 5000	501 to 1000	501 to 1000		
CC(C)[C@@H](OC(=O)N1CCC1)[C@H]1C[C@@H](C)[C@H]2[C@H](O1)[C@H](O)[C@@]1(C)[C@@H]3CC[C@H]4C(C)(C)[C@@H](OC(=O)N5CC[C@H](C(=O)O)C5)CC[C@@]45C[C@@]35CC[C@]21C [Compound I-1]	1000 to 5000	> 5000	1000 to 5000		> 5000	1000 to 5000
CC(C)[C@@H](OC(=O)N1CCC1)[C@H]1C[C@@H](C)[C@H]2[C@H](O1)[C@H](O)[C@@]1(C)[C@@H]3CC[C@H]4C(C)(C)[C@@H](OC(=O)N5CCNC(C(F)(F)F)C5)CC[C@@]45C[C@@]35CC[C@]21C (stereo partly drawn) [Compound I-13]	1000 to 5000		1000 to 5000			
CC(C)[C@@H](OC(=O)N1CCC1)[C@H]1C[C@@H](C)[C@H]2[C@H](O1)[C@H](O)[C@@]1(C)[C@@H]3CC[C@H]4C(C)(C)[C@@H](OC(=O)N(C)C5CN(C)C5)CC[C@@]45C[C@@]35CC[C@]21C [Compound I-11]	100 to 500	> 5000	< 100	100 to 500	> 5000	< 100
CC(C)[C@@H](OC(=O)N1CCC1)[C@H]1C[C@@H](C)[C@H]2[C@H](O1)[C@H](O)[C@@]1(C)[C@@H]3CC[C@H]4C(C)(C)[C@@H](OC(=O)N[C@@H]5CCNC5=O)CC[C@@]45C[C@@]35CC[C@]21C [Compound I-5]	100 to 500	> 5000	100 to 500	100 to 500	> 5000	
CC(C)[C@@H](OC(=O)N1CCC1)[C@H]1C[C@@H](C)[C@H]2[C@H](O1)[C@H](O)[C@@]1(C)[C@@H]3CC[C@H]4C(C)(C)[C@@H](OC(=O)N(C)CC(=O)O)CC[C@@]45C[C@@]35CC[C@]21C [Compound I-15]	501 to 1000	> 5000	100 to 500			
CC(C)[C@@H](OC(=O)N1CCC1)[C@H]1C[C@@H](C)[C@H]2[C@H](O1)[C@H](O)[C@@]1(C)[C@@H]3CC[C@H]4C(C)(C)[C@@H](OC(=O)NCCC(=O)O)CC[C@@]45C[C@@]35CC[C@]21C [Compound I-8]	501 to 1000	> 5000	501 to 1000	501 to 1000		501 to 1000
CC(C)[C@@H](OC(=O)N1CCC1)[C@H]1C[C@@H](C)[C@H]2[C@H](O1)[C@H](O)[C@@]1(C)[C@@H]3CC[C@H]4C(C)(C)[C@@H](OC(=O)N[C@@H]5CCCNC5=O)CC[C@@]45C[C@@]35CC[C@]21C [Compound I-3]	501 to 1000	> 5000	100 to 500	1000 to 5000	> 5000	100 to 500
CC(C)[C@@H](OC(=O)N1CCC1)[C@H]1C[C@@H](C)[C@H]2[C@H](O1)[C@H](O)[C@@]1(C)[C@@H]3CC[C@H]4C(C)(C)[C@@H](OC(=O)N[C@H]5CCCNC5=O)CC[C@@]45C[C@@]35CC[C@]21C [Compound I-6]	100 to 500	> 5000	100 to 500	100 to 500	> 5000	
CC(C)[C@@H](OC(=O)N1CCC1)[C@H]1C[C@@H](C)[C@H]2[C@H](O1)[C@H](O)[C@@]1(C)[C@@H]3CC[C@H]4C(C)(C)[C@@H](OC(=O)N5CC(CNS(=O)(=O)C(F)(F)F)C5)CC[C@@]45C[C@@]35CC[C@]21C [Compound I-9]	1000 to 5000		1000 to 5000			
CC(C)[C@@H](OC(=O)N1CCC1)[C@H]1C[C@@H](C)[C@H]2[C@H](O1)[C@H](O)[C@@]1(C)[C@@H]3CC[C@H]4C(C)(C)[C@@H](OC(=O)N5CCN(C6COC6)CC5)CC[C@@]45C[C@@]35CC[C@]21C [Compound I-14]	501 to 1000		501 to 1000			
CC(C)[C@@H](OC(=O)N1CCC1)[C@H]1C[C@@H](C)[C@H]2[C@H](O1)[C@H](O)[C@@]1(C)[C@@H]3CC[C@H]4C(C)(C)[C@@H](OC(=O)N[C@H]5CCNC5=O)CC[C@@]45C[C@@]35CC[C@]21C [Compound I-2]	501 to 1000	> 5000	100 to 500			
